Laboratory results: publication PMC2658056 (The Journal of Biological Chemistry, 2009)
Changes are numbered by the printed parent chain. Converted amounts (≈) assume the structure as drawn.

Assays:
[1] = molecular target: T1, C89A/C186A mutant of mouse L-PGDS (Mus musculus, UniProt O09114, C186A/C89A); experiment: Intrinsic tryptophan fluorescence quenching assay, C89A/C186A mutant; assay type: binding
T1 sequence (O09114 23-189 C89A/C186A): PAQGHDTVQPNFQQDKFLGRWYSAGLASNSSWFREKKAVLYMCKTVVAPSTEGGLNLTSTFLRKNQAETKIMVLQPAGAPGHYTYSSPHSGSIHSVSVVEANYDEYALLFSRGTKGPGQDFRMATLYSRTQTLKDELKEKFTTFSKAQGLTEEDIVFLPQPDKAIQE

[2] = molecular target: T2, W54A/C89A/C186A mutant of mouse L-PGDS (Mus musculus, UniProt O09114, C186A/C89A/W54A); experiment: Intrinsic tryptophan fluorescence quenching assay, W54A/C89A/C186A mutant; assay type: binding
T2 sequence (O09114 23-189 W54A/C89A/C186A): T1 sequence (O09114 23-189 C89A/C186A) with W32A

[3] = molecular target: COX-1 (Homo sapiens, UniProt P23219); experiment: COX-1 enzyme activity assay; assay type: biochemical; details: AT-56 up to 250 μM
Chain of COX-1 (P23219 24-599): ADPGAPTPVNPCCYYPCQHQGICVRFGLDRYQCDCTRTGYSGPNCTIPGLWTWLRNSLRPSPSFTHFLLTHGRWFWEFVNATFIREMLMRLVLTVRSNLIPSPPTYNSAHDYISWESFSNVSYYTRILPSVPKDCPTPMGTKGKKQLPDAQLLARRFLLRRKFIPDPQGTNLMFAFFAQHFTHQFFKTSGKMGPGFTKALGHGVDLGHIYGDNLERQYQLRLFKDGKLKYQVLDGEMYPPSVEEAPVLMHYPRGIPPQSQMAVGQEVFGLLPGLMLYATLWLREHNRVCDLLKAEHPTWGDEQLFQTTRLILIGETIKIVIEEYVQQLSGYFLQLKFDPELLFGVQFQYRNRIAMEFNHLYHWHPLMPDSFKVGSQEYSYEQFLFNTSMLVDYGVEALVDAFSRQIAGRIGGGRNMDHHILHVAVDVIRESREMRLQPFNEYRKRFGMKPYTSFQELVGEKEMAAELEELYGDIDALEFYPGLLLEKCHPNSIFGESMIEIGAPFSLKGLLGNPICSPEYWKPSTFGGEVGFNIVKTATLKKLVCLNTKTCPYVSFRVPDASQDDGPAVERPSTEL

[4] = system: L-PGDS-expressing human medulloblastoma TE-671 cells; experiment: PG production by A23187-stimulated TE-671 cells; assay type: cell-based
[5] = molecular target: T3, COX-2 (Homo sapiens, UniProt P35354); experiment: COX-2 enzyme activity assay; assay type: biochemical; details: AT-56 up to 250 μM
T3 sequence (P35354 18-604): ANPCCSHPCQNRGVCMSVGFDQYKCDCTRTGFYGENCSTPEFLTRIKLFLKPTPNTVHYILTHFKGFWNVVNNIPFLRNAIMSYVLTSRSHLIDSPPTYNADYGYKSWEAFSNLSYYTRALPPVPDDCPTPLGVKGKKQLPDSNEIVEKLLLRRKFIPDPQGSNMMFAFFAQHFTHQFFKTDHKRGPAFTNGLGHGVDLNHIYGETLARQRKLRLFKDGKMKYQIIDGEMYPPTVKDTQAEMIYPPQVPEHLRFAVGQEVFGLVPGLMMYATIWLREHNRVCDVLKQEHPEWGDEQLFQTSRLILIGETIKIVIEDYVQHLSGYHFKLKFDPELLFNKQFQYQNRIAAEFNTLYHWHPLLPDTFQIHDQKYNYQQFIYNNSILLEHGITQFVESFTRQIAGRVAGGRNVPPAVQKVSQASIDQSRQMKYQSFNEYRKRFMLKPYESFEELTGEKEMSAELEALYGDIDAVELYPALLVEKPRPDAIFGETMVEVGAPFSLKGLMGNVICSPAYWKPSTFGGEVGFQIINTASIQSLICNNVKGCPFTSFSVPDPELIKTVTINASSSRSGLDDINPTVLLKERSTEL

[6] = Acute toxicity after oral administration; assay type: in vivo; details: dose of 100 mg/kg
[7] = molecular target: T4, m-PGES-1 (Homo sapiens, UniProt O14684); experiment: m-PGES-1 enzyme activity assay; assay type: biochemical; details: AT-56 up to 250 μM
T4 sequence (O14684 1-152): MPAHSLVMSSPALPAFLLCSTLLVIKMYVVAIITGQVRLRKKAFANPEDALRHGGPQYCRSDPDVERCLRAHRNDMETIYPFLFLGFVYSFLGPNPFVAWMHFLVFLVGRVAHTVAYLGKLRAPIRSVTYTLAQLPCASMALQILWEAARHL

[8] = Pharmacokinetics of AT-56 in plasma; assay type: in vivo, C57BL/6 mice; details: male, C57BL/6, mouse; for Tmax: mice
[9] = system: brain of H-PGDS KO mice; experiment: PG production by stab wound brain injury
[10] = molecular target: T5, recombinant mouse L-PGDS C89A/C186A mutant (Mus musculus, UniProt O09114, C186A/C89A); experiment: biochemical
T5 sequence (O09114 23-189 C89A/C186A): T1 sequence (O09114 23-189 C89A/C186A)

[11] = molecular target: H-PGDS (Homo sapiens, UniProt O60760); experiment: H-PGDS enzyme activity assay; assay type: biochemical; details: AT-56 up to 250 μM
Chain of H-PGDS (O60760 whole entry, species assumed): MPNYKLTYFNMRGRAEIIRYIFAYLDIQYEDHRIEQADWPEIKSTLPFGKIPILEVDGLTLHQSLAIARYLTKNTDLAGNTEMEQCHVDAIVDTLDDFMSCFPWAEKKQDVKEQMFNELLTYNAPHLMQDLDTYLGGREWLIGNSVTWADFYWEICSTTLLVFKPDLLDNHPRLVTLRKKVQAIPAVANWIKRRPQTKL

[12] = system: H-PGDS-expressing human megakaryoblastic MEG-01S cells; experiment: PGD2 production by A23187-stimulated MEG-01S cells; assay type: cell-based
[13] = Maximum solubility in aqueous solution; assay type: physicochemical
[14] = system: human L-PGDS TG mice; experiment: L-PGDS-mediated allergic airway inflammation; assay type: in vivo
[15] = 0 to 30 μM AT-56, 5 μM A23187, enzyme immunoassay

## CC1=C(/C=C/C(C)=C/C=C/C(C)=C\C(=O)O)C(C)(C)CCC1 [13-cis-retinoic acid, reference compound]
[1]; 10 μM 13-cis-retinoic acid, absence of AT-56
  tryptophan fluorescence intensity decreased to: about 8%
[1]; 10 μM 13-cis-retinoic acid, in the presence of 10 μM AT-56
  tryptophan fluorescence intensity decreased to: < 10%
[2]; 10 μM 13-cis-retinoic acid
  tryptophan fluorescence intensity decreased to: < 10%

## C1=Cc2ccccc2C(=C2CCN(CCCCc3nn[nH]n3)CC2)c2ccccc21 [AT-56, 4-dibenzo[a,d]cyclohepten-5-ylidene-1-[4-(2H-tetrazol-5-yl)-butyl]-piperidine]
[3]
  effect on COX-1 activity: not significantly affected
[1]; 10 μM AT-56
  effect on binding of 13-cis-retinoic acid to L-PGDS: did not inhibit the binding
  tryptophan fluorescence intensity decreased to: about 60%
[4]; [15]
  effect on PGE2 production: without affecting
  effect on PGF2α production: without affecting
[4]; 10 μM AT-56, A23187
  PGD2 biosynthesis: only a base level
  arachidonic acid release: without changing
[4]; Homo sapiens, TE-671, read-out: IC50, PGD2 production
  IC50: ~3 µM
[4]; [1-14C]arachidonic acid-prelabeled cells, AT-56 up to 100 μM
  production of other 14C-labeled metabolites: not inhibited
[5]
  effect on COX-2 activity: not significantly affected
[6]
  acute toxic effects: did not detect any acute toxic effects
[7]
  effect on m-PGES-1 activity: not significantly affected
[2]; 10 μM AT-56
  fluorescence quenching: did not show the fluorescence quenching
[8]; iv, 2 mg/kg
  AUC: 1280 ng·h/mL
  C0: 860 ng/mL
  half-life: 2.35 h
  Tmax: 0.08 h
[8]; po, 10 mg/kg
  AUC: 8950 ng·h/mL
  Cmax: 2150 ng/mL
  bioavailability: 82%
  concentration at 12 h: < 0.4 ng/mL
  half-life: 1.71 h
[8]; po, 10 mg/kg, per os
  Tmax: 0.5 h
[9]; 30 mg/kg AT-56 orally 1 h before the injury
  total amount of PGD2 in the brain decreased to: 40%
[9]; AT-56 orally 1–30 mg/kg
  amount of PGE2 in the brain: not significantly changed
  amount of PGF2α in the brain: not significantly changed
[10]
  IC50: 95 µM
  Ki: 75 µM
[11]
  effect on H-PGDS activity: not significantly affected
[12]
  effect on PGD2 production: no effect
[13]; 10% DMSO
  solubility: 260 µM (≈ 103 µg/mL)
[13]; saline containing 1% DMSO
  solubility: 90 µM (≈ 35.8 µg/mL)
[14]; 1 mg/kg AT-56 p.o.
  total cells in BALF, actual number: 8.7 ± 1.9 × 10^4 cells/ml
[14]; 10 mg/kg AT-56 p.o.
  total cells in BALF, actual number: 2.7 ± 0.4 × 10^4 cells/ml

## c1ccc(C(OC2CCN(CCCc3nnn[nH]3)CC2)c2ccccc2)cc1 [HQL-79, 4-benzhydryloxy-1-(3-(1H-tetrazol-5-yl)-propyl)-piperidine, reference compound]
[4]; TE-671 cells
  effect on PGD2 production: but not from TE-671 cells
[12]
  effect on PGD2 production: inhibited PGD2 production
